Paper PMC8201479, “Trisubstituted Pyrrolinones as Small-Molecule Inhibitors Disrupting the Protein–RNA Interaction of LIN28 and Let-7” (ACS Medicinal Chemistry Letters, 2021)
Where two headings read alike, the source gives them in different places.

Assays:
LIN28–let-7 interaction [1] = target: T1, LIN28–let-7 interaction (Homo sapiens, UniProt Q9H9Z2); assay: Fluorescence polarization (FP) assay, LIN28A (residues 16–187) and FAM-labeled preE-let-7f-1; type: binding; conditions: for IC50: Table 1, quadruplicate, eight concentrations, read-out: IC50, LIN28–let-7 inhibitory activity; for FP, Average (mP): raw data Table S3, four replicates
T1 construct: Purified LIN28A (residues 16–187) was incubated at a concentration of 200 nM; His-tag (cleaved yes); made in house; host or cells: Escherichia coli BL21(DE3)
T1 sequence (Q9H9Z2 16-187): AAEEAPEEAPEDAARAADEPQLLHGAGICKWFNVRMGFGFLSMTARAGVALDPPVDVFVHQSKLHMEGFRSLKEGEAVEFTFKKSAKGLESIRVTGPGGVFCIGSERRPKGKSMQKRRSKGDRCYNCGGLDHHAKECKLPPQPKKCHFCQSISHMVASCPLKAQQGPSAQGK

LIN28–let-7 interaction [2] = target: T1, LIN28–let-7 interaction; assay: as above; type: binding; conditions: text and figures; C-labels = library sample, PH-labels = in-house resynthesized; read-out: IC50 in the FP assay
Procedure: Protein expression and purification.
19 vector and overexpressed in Escherichia coli BL21(DE3). The culture was incubated at 37 °C until
the absorbance at 600 nm (OD600) reached 0.5–0.7. IPTG was added to a final concentration of
300 µM, and overnight induction was performed at 18 °C. Cells were harvested by centrifugation.
The bacterial pellet was resuspended in lysis buffer (50 mM NaH2PO4, pH 7.5, 300 mM NaCl,
0.1 mM PMSF) and lysed using a Microfluidizer (Microfluidics) . A fresh portion of 0.1 mM PMSF
and Triton X-100 (1% final concentration) were added. The lysate was cleared by ultra centrifugation
at 30000 xg and 4 °C for 1 h. The protein purification was performed using immobilized nickel
300 mM NaCl and 5 % glycerol. Gradient elution was performed with a maximum of 0.5 M imidazole.
Subsequently, the affinity tag was cleaved using His6 -TEV-protease and the protease and unspecific
binders were eliminated by a second nickel affinity chromatography. After protein concentration
LIN28A containing fractions were concentrated and applied to a High Load Superdex 75 pg 16/600
column (GE Healthcare) with gel-filtration buffer (30 mM NaH2PO4, pH 7.5, 50 mM NaCl, 5%
glycerol, 2 mM β-ME). The purified protein was concentrated and stored at -80 °C until further
Fluorescence polarization. The fluorescence polarization assay was performed in black low volume
IC50 measurements were performed with three technical
minutes with compound concentrations ranging from 0.3 nM to 100 µM in FP assay buffer (20 mM
Tris, pH 7, 100 mM NaCl, 5 mM MgCl2, 2 mM glutathione (reduced), 0.1 % NP-40). Subsequently,
FAM-labeled preE-let-7f-1 (mus musculus) ([…]-
FAM, synthesized by IDT) was added to a final concentration of 2 nM. Fluorescence polarization
was detected after incubation at room temperature using a TECAN Spark plate reader. Half maximal
inhibitory concentrations (IC50) were determined using GraphPad Prism 7. […]

[3] = starting from a maximum concentration of 60 μM
[4] = starting from 30 μM, extrapolated based on the observed IC50 curves

| Structure (SMILES) | IC50 (LIN28–let-7 interaction [1]; [3]) | FP, Average (mP) (LIN28–let-7 interaction [1]; 0.041 μM compound) | FP, Average (mP) (LIN28–let-7 interaction [1]; 0.123 μM compound) | FP, Average (mP) (LIN28–let-7 interaction [1]; 0.368 μM compound) | FP, Average (mP) (LIN28–let-7 interaction [1]; 1.103 μM compound) | FP, Average (mP) (LIN28–let-7 interaction [1]; 3.125 μM compound) | FP, Average (mP) (LIN28–let-7 interaction [1]; 9.375 μM compound) | FP, Average (mP) (LIN28–let-7 interaction [1]; 29.688 μM compound) | FP, Average (mP) (LIN28–let-7 interaction [1]; 59.375 μM compound) | IC50 (LIN28–let-7 interaction [2]) | IC50 (LIN28–let-7 interaction [1]; [4]) |
| --- | --- | --- | --- | --- | --- | --- | --- | --- | --- | --- | --- |
| O=C(O)c1ccc(C2C(C(=O)c3ccccc3)=C(O)C(=O)N2c2ccc(C(=O)O)c(O)c2)cc1 (stereo not drawn) [PH-38] | 16 µM | 113.00 mP | 113.25 mP | 117.75 mP | 113.25 mP | 101.00 mP | 86.53 mP | 50.30 mP | 49.00 mP | – | – |
| O=C(O)c1ccc(C2C(C(=O)c3ccccc3)=C(O)C(=O)N2c2ccc(O)c(C(=O)O)c2)cc1 (stereo not drawn) [C880/PH-39] | 6 µM | 111.50 mP | 113.50 mP | 115.75 mP | 112.00 mP | 91.63 mP | 55.98 mP | 41.63 mP | 45.53 mP | < 30 µM | – |
| COc1ccc(C(=O)C2=C(O)C(=O)N(c3cccc(-c4nnn[nH]4)c3)C2c2ccc(-c3nccs3)cc2)cc1 (stereo not drawn) [C901] | – | – | – | – | – | – | – | – | – | – | > 100 µM |
| O=C(O)c1ccc(C2C(C(=O)c3ccc(Br)cc3)=C(O)C(=O)N2c2ccc(C(=O)O)cc2)cc1 (stereo not drawn) [C895] | – | – | – | – | – | – | – | – | – | – | > 100 µM |
| O=C(C1=C(O)C(=O)N(c2ccc(O)c(C(=O)O)c2)C1c1ccc(-c2nccs2)cc1)c1ccccc1 (stereo not drawn) [C879/PH-34] | 12 µM | 117.25 mP | 110.90 mP | 115.50 mP | 113.50 mP | 89.73 mP | 88.63 mP | 73.03 mP | 53.40 mP | < 30 µM | – |
| O=C(C1=C(O)C(=O)N(c2ccc(O)c([N+](=O)[O-])c2)C1c1ccc(-c2nccs2)cc1)c1ccccc1 (stereo not drawn) [PH-37] | 41 µM | 113.25 mP | 106.48 mP | 115.75 mP | 111.25 mP | 111.50 mP | 95.58 mP | 86.53 mP | 71.50 mP | – | – |
| COc1ccc(C(=O)C2=C(O)C(=O)N(c3ccc(O)c(C(=O)O)c3)C2c2ccc(C(=O)O)cc2)cc1 (stereo not drawn) [C885] | – | – | – | – | – | – | – | – | – | – | 30 to 40 µM |
| O=C(C1=C(O)C(=O)N(c2ccc(O)c(C(=O)O)c2)C1c1ccc(-c2nccs2)cc1)c1ccco1 (stereo not drawn) [PH-43] | 5 µM | 110.50 mP | 109.50 mP | 109.75 mP | 98.88 mP | 79.00 mP | 55.18 mP | 37.25 mP | 33.68 mP | – | – |
| O=C(O)c1cccc(N2C(=O)C(O)=C(C(=O)c3ccccc3)C2c2ccc(-c3nccs3)cc2)c1 (stereo not drawn) [C897] | – | – | – | – | – | – | – | – | – | – | 30 to 40 µM |
| O=C(C1=C(O)C(=O)N(c2cccc(-c3nnn[nH]3)c2)C1c1ccc(-c2nccs2)cc1)c1ccccc1 (stereo not drawn) [C898] | – | – | – | – | – | – | – | – | – | – | > 100 µM |
| O=C(O)c1ccc(C2C(C(=O)c3ccc(Br)cc3)=C(O)C(=O)N2c2ccc(O)c(C(=O)O)c2)cc1 (stereo not drawn) [C893] | – | – | – | – | – | – | – | – | – | – | 30 to 40 µM |
| COc1ccc(C(=O)C2=C(O)C(=O)N(c3ccc(O)c(C(=O)O)c3)C2c2ccc(-c3nccs3)cc2)cc1OC (stereo not drawn) [PH-44] | 12 µM | 96.70 mP | 118.00 mP | 115.00 mP | 107.75 mP | 92.95 mP | 82.98 mP | 63.53 mP | 54.00 mP | – | – |
| O=C(O)c1ccc(C2C(C(=O)c3ccc(Br)cc3)=C(O)C(=O)N2c2cccc(-c3nnn[nH]3)c2)cc1 (stereo not drawn) [C896] | – | – | – | – | – | – | – | – | – | – | > 100 µM |
